Test system: Arabidopsis etiolated seedlings
Assay: Ethylene response of etiolated seedlings grown on AT plates versus AT plus ACC (root length inhibition)
Assay type: in vivo, Arabidopsis thaliana
Conditions: 10 uM ACC, 5 days
Protocol: (§1) Phenotypes of 5-day-old etiolated seedlings grown on AT plates in the absence or presence of 10 uM ACC. Data are presented in tabular (A) and graph (B) forms. Ethylene response of 5-day-old etiolated seedlings of WS, Col and two independent quadruple mutant isolates was quantified. Root and hypocotyl lengths of seedlings grown on AT plates versus AT plus 10 uM ACC were measured. Each data point represents the average organ length of 50 or more seedlings plus/minus standard deviation. Fold inhibition was calculated as the ratio of the average organ length in air to that in ACC.
To overcome the redundancy problem, crosses were performed between the mutants in different EDF genes to construct double, triple and quadruple mutant combinations. Mutant genotypes were assayed by PCR. […] Importantly, the observed ethylene insensitivity was more dramatic in the quadruple mutant combinations that involved the strong edf1-1 allele (i.e. edf1-1 edf2-1 edf3-1 edf4-1 and edf1-1 edf2-2 edf3-1 edf4-1), compared to those that included the edf1-2 allele (edf1-2 edf2-1 edf3-1 edf4-1 and edf1-2 edf2-2 edf3-1 edf4-1). The weaker phenotype of the latter quadruple mutant combinations is consistent with the leaky expression of EDF1 in the edf1-2 mutant.
as §1, with “were measured. […] Fold inhibition” for “were measured. Each data point represents the average organ length of 50 or more seedlings plus/minus standard deviation. Fold inhibition”, “in ACC. Similar, yet less dramatic, differences were detected when the hypocotyls of the quadruple and wild-type seedlings were measured.” for “in ACC.”
Arabidopsis thaliana accession Columbia-0 was used for all overexpression studies. […] After 3–4 days in the light at 4 degrees C., the plates were wrapped in foil and kept in a 24 C incubator, after which the phenotypes of seedlings were analyzed. […]

NC1(C(=O)O)CC1 [ACC, 1-aminocyclopropane-1-carboxylic acid]
root length inhibition (fold; ratio of average organ length in air to that in ACC) (Columbia wild-type seedlings): 9.5 fold
root length inhibition (fold; ratio of average organ length in air to that in ACC) (WS wild-type seedlings): 12 fold
root length inhibition (fold; ratio of average organ length in air to that in ACC) (quadruple mutant edf1-1 edf2-1 edf3-1 edf4-1 seedlings): less than 7 fold
